Assay results: patent US10064865B2, “Composition comprising phosphodiesterase type 5 inhibitor for inhibiting apoptosis of nerve cells” (ARIBIO INC., priority 2012, dated 2018)
Marks after values point to notes of the source that are not given here.

What was measured:
[1] = tested on: neuron apoptosis-operated rats, ipsilateral cerebral cortex; experiment: Example 1 histopathology (H&E): cerebral atrophy and degenerative neurons; format: in vivo, Sprague-Dawley (SD) rats; conditions: for Cerebral atrophic % / Numbers of neurons: Degenerative cells: 29 days after neuron apoptosis
Method: Total one hundred healthy male Sprague-Dawley (SD) rats (6-wk old upon receipt; Japan; Body weight ranged in 180-200 g upon receipt) were used after acclimatization for […]. Animals were allocated five per polycarbonate cage in a temperature (20-25° C.) and humidity (50-55%) controlled room. Light:dark cycle was 12 hr:12 hr, and standard rodent chow (Samyang, Korea) and water were supplied free to access. All animals were treated in accordance with the Guidelines for Care and Use of Laboratory Animals of Daegu Haany University based on the Guide for the Care and Use of Laboratory Animals by Institute of Laboratory Animal Resources, Commission on Life Science, National Research Council, USA on 1996, Washington D.C. Experimental groups were as follows:
The mirodenafil (mirodenafil 2HCl; SK Chemical Life Science Business, KR) was used in this experiment. […] Mirodenafil was stored at 4° C. in a refrigerator to protect from light and humidity until used. Three different dosages, 0.5, 1 and 2 mg/kg of mirodenafil were directly dissolved in saline and subcutaneously administered in a volume of 1 ml/kg on the dorsal back skins, once a day for 28 days from 24 hrs after stabilization periods from operation. In saline and neuron apoptosis control rats, equal volumes of saline as vehicle were administered, instead of mirodenafil, respectively.
(§1) The induction of neuron apoptosis was carried out by damaging the right hemisphere of the brain of animals. Specifically, animals were anesthetized with 2 or 3% isoflurane in the mixture of 70% N2O and 28.5% O2, and were maintained with 1 to 1.5% isoflurane in the mixture of 70% N2O and 28.5% O2. After that the temporalis muscle was bisected and reflected through an incision made midway between the eye and the eardrum canal. The proximal MCA was exposed through a subtemporal craniectomy by microdental drills without removing the zygomatic arch and without transecting the facial nerve. […] Mortality was less than 5%. For sham control, all procedures were performed in the same way, with the exception of the occlusion of the MCA.
At 29 days after neuron apoptosis rats were sacrificed. Brains were removed, washed in chilled phosphate buffered saline (PBS, pH7.4), and dissected into 6 coronal sections (2 mm thickness) ranging from 2 to 14 mm from the frontal brain pole on the rat brain stainless steel coronal matrix (Harvard, USA). Brain slices prepared by the stainless steel coronal matrix were directly fixed in 10% NBF, not stained with TTC. Then, embedded in paraffin, cross-sectioned, and stained with hematoxylin and eosin (H&E) for observing general histopathology of cerebral cortex. […] The histopathologist was blindes to group distribution when this analysis was made.
Histomorphometry: The atrophic % of ipsilateral cerebral cortex was calculated as following equation 1 as compared with intact contralateral hemisphere. In addition, the numbers of degenerative neurons were also measured in the restricted view fields of cerebral cortex, mm^2, respectively. Cerebral atrophy formation=(Contralateral cerebral cortex area−ipsilateral cerebral cortex area)/Contralateral cerebral cortex area×100(%) [EQUATION 1]
(§2) All data were expressed as mean±standard deviation (S.D.) of ten rats. Multiple comparison tests for different dose groups were conducted. Variance homogeneity was examined using the Levene test (Levene A, Clin Otalary, 1981; 6:145-51). […] Statistical analyses were conducted using SPSS (Release 14K, SPSS Inc., USA; Ludbrook, Clin Exp Pharmacol Physiol, 1997; 24:294-6). In addition, the percent changes between neuron apoptosis control and mirodenafil treated rats were calculated to help the understanding of the efficacy of test material as follow equation 3. Percentage changes as compared with neuron apoptosis control (%)=[((Data of mirodenafil treated groups−Data of neuron apoptosis control)/Data of neuron apoptosis control)×100] [EQUATION 3]

caspase-3 = experiment: Example 1 immunohistochemistry: caspase-3-immunoreactive cells; format: in vivo, Sprague-Dawley (SD) rats; conditions: for Numbers of neurons: Caspase-3+: 29 days after neuron apoptosis
Method: as §1
After deparraffinized of cerebral histological paraffin sections, citrate buffer antigen (epitope) retrieval pretreatment were conducted as previously (Shi S R et al., J Histochem Cytochem. 41:1599-604(1993)). Briefly, pre-heat water bath with staining dish containing 10 mM citrate buffers (pH 6.0) until temperature reaches 95-100° C. Immerse slides in the staining dish and place the lid loosely on the staining dish. Incubate for 20 minutes and turn off the water bath. Place the staining dish at room temperature and allow the slides to cool for 20 minutes. After epitope retrivals, sections were immunostained as following steps:
Incubate sections with methanol and 0.3% H2O2 for 30 minutes for blocking endogenous peroxidase activity at room temperature and rinse in 0.01M phosphate buffered saline (PBS; pH 7.2) for 3 times;
Incubate sections with normal horse serum blocking solution (Vector Lab. Inc., Burlingame, USA. Dilution 1:100) for 1 hour to block non-specific binding of immunoglobulin at room temperature in humidity chamber, and rinse in 0.01M PBS for 3 times;
Incubate sections with primary antisera for overnight at 4° C. in humidity chamber and rinse in 0.01M PBS for 3 times;
Incubate sections with biotinylated universal secondary antibody (Vector Lab., Dilution 1:50) for 1 hour at room temperature in humidity chamber and rinse in 0.01M PBS for 3 times;
Incubate sections with ABC reagents (Vectastain Elite ABC Kit, Vector Lab., Dilution 1:50) for 1 hour at room temperature in humidity chamber and rinse in 0.01M PBS for 3 times;
Incubate sections in Peroxidae substrate kit (Vector Lab.) for 5 min at room temperature and rinse in 0.01M PBS for 3 times;
Counterstain with Mayer's hematoxylin solution and rinse in running tap water for 30 minutes;
Dehydrate through 95% ethanol for 2 minutes, 100% ethanol for 3 times and Clear in xylene for two times; and
Coverslip with permanent mounting medium and observed under light microscope (Nikkon, Japan).
Histomorphometry: The nerve cells occupied by over 10% of immunoreactivities, the density, of each antiserum, caspase-3 and PARP were regarded as immunoreactive. In the present study, the numbers of each caspase-3 and PARP-immunoreactive cells among mm^2 of ipsilateral peri-infarct/defect cerebral cortex were measured using a computer-assisted image analysis program, respectively.
as §2

With `CCCOc1ccc(S(=O)(=O)N2CCN(CCO)CC2)cc1-c1nc2c(CCC)cn(CC)c2c(=O)[nH]1` [Mirodenafil, mirodenafil] the “ipsilateral cerebral atrophic %, change as compared with neuron apoptosis control” value (shortened to “ipsilateral cerebral atrophic %, change”) ([1]; 0.5 mg/kg) was −8.70%, the “numbers of degenerative neurons, change as compared with neuron apoptosis control” value (“numbers of degenerative neurons, change” for short) ([1]; 0.5 mg/kg) was −44.47% and the Cerebral atrophic % ([1]; 0.5 mg/kg s.c. once a day) was 51.38 ± 10.74^a %. For the same molecule, the “Numbers of neurons: Degenerative cells” value ([1]; 0.5 mg/kg s.c. once a day) was 45.20 ± 8.97^ab cells/mm^2 of cerebral cortex, the “ipsilateral cerebral atrophic %, change” value ([1]; 1 mg/kg) was −46.42% and the “numbers of degenerative neurons, change” value ([1]; 1 mg/kg) was −73.46%. The Cerebral atrophic % ([1]; 1 mg/kg s.c. once a day) was 30.15 ± 10.28^ab %, the “Numbers of neurons: Degenerative cells” value ([1]; 1 mg/kg s.c. once a day) was 21.60 ± 9.43^ab cells/mm^2 of cerebral cortex and the “ipsilateral cerebral atrophic %, change” value ([1]; 2 mg/kg) was −53.31%. The “numbers of degenerative neurons, change” value ([1]; 2 mg/kg) was −76.54%, the Cerebral atrophic % ([1]; 2 mg/kg s.c. once a day) was 26.28 ± 9.12^ab % and the “Numbers of neurons: Degenerative cells” value ([1]; 2 mg/kg s.c. once a day) was 19.10 ± 2.08^ab cells/mm^2 of cerebral cortex. For the same molecule, the “numbers of caspase-3-immunoreactive neurons, change as compared with neuron apoptosis control” value (caspase-3; 0.5 mg/kg) was −33.43%, the “Numbers of neurons: Caspase-3+” value (caspase-3; 0.5 mg/kg s.c. once a day) was 43.80 ± 10.37^ab cells/mm^2 of cerebral cortex and the “numbers of caspase-3-immunoreactive neurons, change as compared with neuron apoptosis control” value (caspase-3; 1 mg/kg) was −76.44%. For the same molecule, the “Numbers of neurons: Caspase-3+” value (caspase-3; 1 mg/kg s.c. once a day) was 15.50 ± 3.57^ab cells/mm^2 of cerebral cortex, the “numbers of caspase-3-immunoreactive neurons, change as compared with neuron apoptosis control” value (caspase-3; 2 mg/kg) was −77.96% and the “Numbers of neurons: Caspase-3+” value (caspase-3; 2 mg/kg s.c. once a day) was 14.50 ± 3.69^ab cells/mm^2 of cerebral cortex.
